Activity calls are given as the source filed them.
Legend:
[1] = biological target: Tyrosine-protein kinase JAK2 (Homo sapiens, UniProt O60674); type: functional;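 further: JAK2 tested as one member of a kinase panel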
[2] = biological target: Dual specificity mitogen-activated protein kinase kinase 2 (Homo sapiens, UniProt P36507); test: Navigating the Kinome. Panel member name: MAP2K2; type: functional
[3] = biological target: Dual specificity mitogen-activated protein kinase kinase 1 (Homo sapiens, UniProt Q02750); test: Navigating the Kinome. Panel member name: MAP2K1; type: functional
[4] = biological target: Serine/threonine-protein kinase Nek2 (Homo sapiens, UniProt P51955); type: functional
[5] = biological target: Rho-associated protein kinase 1 (Homo sapiens, UniProt Q13464); type: functional;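 further: measured within a broad kinome-wide panel profiling many kinases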
[6] = biological target: Serine/threonine-protein kinase TAO1 (Homo sapiens, UniProt Q7L7X3); type: functional
[7] = biological target: 5'-AMP-activated protein kinase catalytic subunit alpha-1 (Homo sapiens, UniProt Q13131); type: functional
Insulin-degrading enzyme = biological target: T1, Insulin-degrading enzyme (Homo sapiens, UniProt P14735); test: cellular IDE activation of Abeta substrate cleavage – fluorescence polarization, HEK cells, dose response (AID 588439); type: functional, cell-based
T1 sequence (P14735 whole entry): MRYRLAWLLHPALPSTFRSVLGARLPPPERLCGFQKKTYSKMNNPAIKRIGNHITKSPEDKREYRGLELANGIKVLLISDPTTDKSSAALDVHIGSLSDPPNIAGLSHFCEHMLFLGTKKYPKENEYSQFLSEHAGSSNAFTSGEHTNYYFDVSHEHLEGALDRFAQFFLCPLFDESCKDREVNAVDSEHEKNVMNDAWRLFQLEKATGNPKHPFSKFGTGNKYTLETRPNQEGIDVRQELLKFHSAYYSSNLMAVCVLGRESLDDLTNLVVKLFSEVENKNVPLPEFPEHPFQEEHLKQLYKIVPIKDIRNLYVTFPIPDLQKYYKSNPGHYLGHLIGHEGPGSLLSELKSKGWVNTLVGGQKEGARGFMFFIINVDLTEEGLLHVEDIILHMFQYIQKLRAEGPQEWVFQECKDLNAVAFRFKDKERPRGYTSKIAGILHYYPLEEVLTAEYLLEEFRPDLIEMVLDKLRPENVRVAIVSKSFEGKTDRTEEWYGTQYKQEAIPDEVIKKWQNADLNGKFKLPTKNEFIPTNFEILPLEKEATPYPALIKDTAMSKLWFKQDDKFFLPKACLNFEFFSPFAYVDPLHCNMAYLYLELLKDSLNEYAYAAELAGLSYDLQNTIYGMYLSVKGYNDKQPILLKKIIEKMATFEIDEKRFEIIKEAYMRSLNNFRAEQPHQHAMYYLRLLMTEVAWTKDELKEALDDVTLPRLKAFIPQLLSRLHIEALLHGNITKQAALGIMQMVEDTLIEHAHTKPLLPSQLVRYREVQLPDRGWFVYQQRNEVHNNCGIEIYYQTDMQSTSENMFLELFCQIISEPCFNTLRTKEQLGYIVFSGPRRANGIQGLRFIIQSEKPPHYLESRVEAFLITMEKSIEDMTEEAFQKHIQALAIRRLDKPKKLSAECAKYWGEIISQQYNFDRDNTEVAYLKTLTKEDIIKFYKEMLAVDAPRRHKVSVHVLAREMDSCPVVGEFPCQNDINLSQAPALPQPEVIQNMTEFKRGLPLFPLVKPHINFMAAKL

[8] = biological target: T2, Histone-lysine N-methyltransferase NSD2 (Homo sapiens, UniProt O96028); type: biochemical
T2 sequence (O96028 whole entry): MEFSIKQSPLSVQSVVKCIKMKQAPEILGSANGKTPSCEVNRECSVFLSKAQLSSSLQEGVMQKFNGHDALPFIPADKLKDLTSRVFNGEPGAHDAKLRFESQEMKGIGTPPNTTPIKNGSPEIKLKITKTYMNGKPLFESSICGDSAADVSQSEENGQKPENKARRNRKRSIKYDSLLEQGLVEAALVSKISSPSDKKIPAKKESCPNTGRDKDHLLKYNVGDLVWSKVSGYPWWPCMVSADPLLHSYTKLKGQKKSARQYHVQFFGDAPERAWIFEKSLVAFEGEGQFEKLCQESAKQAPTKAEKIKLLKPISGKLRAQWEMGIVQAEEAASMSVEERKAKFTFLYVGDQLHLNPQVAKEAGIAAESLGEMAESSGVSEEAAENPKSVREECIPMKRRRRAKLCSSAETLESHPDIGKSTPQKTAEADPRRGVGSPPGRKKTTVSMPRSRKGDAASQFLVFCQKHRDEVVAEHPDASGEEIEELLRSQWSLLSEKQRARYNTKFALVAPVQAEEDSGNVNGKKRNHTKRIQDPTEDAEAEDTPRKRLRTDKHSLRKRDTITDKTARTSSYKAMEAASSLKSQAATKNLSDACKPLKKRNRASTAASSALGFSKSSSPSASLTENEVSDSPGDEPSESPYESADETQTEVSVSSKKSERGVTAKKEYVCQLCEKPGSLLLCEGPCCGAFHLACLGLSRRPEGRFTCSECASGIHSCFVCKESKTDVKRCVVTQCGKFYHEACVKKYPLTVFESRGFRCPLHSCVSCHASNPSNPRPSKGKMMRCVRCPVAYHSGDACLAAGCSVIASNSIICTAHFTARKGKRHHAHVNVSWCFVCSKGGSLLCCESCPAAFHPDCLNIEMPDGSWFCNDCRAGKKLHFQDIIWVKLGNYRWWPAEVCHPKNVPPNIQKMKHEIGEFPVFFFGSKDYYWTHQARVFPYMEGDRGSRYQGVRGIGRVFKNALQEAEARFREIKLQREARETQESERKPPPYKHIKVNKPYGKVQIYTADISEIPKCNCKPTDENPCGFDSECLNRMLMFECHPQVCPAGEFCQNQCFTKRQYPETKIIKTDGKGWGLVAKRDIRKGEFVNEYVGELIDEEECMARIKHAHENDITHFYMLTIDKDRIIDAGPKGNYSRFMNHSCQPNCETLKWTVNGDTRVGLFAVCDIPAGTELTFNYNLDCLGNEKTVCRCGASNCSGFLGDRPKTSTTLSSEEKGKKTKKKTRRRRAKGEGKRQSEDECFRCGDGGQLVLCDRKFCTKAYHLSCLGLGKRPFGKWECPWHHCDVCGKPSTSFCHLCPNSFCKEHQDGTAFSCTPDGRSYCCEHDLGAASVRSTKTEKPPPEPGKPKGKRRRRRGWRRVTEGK

HeLa = test: viability loss in HeLa cells – cell-based, 24 h, cherry-picked samples, cytotoxicity control, dose response (AID 504726); type: functional; conditions: Homo sapiens;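 further: potency for cytotoxicity as loss of luminescence signal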
[9] = PKA-R1A complex activators, counter-screen titration – biochemical, Cy5-IP20 fluorescence polarization, 1536-well, triplicate, counter-screen for PKA-R2B activator project, dose response (AID 504896)
[10] = biological target: Serine/threonine-protein phosphatase PP1-alpha catalytic subunit (Homo sapiens, UniProt P62136); test: inhibition of protein phosphatase 1 activity – biochemical, fluorescence, dose response (AID 2394)
Serine/threonine-protein phosphatase PP1-alpha catalytic subunit, sequence (P62136 whole entry): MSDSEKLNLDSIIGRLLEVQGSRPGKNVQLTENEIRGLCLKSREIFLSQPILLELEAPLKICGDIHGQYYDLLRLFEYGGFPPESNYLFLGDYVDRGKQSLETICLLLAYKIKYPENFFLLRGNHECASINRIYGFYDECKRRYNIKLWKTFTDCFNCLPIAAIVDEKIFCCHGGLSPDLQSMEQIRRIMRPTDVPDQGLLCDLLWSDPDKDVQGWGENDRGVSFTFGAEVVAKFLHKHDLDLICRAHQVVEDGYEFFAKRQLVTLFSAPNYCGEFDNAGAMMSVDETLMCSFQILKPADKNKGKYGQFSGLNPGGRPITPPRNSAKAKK

Dual specificity mitogen-activated protein kinase kinase 1, sequence (Q02750 whole entry): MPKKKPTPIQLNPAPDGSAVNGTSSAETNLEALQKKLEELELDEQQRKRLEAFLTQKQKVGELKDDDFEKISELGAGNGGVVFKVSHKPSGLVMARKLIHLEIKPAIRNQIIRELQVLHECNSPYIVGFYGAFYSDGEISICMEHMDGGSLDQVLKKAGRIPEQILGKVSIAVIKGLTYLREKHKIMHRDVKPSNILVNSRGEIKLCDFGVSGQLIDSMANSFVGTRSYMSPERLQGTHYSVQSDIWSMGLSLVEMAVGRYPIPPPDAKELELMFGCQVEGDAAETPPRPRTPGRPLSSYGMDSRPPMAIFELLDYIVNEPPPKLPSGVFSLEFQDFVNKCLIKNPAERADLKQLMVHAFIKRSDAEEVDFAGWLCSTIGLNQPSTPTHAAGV
Dual specificity mitogen-activated protein kinase kinase 2, sequence (P36507 whole entry): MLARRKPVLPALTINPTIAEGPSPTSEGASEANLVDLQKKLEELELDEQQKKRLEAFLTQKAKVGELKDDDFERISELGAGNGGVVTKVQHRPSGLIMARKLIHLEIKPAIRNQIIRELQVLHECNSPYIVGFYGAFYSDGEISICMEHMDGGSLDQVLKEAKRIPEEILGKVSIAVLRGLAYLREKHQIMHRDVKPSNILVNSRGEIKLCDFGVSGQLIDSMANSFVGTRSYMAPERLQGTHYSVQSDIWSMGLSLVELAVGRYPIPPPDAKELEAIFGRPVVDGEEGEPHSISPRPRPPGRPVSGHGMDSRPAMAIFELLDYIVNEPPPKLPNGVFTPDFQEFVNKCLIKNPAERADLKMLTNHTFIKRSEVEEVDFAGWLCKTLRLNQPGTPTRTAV
Rho-associated protein kinase 1, sequence (Q13464 whole entry): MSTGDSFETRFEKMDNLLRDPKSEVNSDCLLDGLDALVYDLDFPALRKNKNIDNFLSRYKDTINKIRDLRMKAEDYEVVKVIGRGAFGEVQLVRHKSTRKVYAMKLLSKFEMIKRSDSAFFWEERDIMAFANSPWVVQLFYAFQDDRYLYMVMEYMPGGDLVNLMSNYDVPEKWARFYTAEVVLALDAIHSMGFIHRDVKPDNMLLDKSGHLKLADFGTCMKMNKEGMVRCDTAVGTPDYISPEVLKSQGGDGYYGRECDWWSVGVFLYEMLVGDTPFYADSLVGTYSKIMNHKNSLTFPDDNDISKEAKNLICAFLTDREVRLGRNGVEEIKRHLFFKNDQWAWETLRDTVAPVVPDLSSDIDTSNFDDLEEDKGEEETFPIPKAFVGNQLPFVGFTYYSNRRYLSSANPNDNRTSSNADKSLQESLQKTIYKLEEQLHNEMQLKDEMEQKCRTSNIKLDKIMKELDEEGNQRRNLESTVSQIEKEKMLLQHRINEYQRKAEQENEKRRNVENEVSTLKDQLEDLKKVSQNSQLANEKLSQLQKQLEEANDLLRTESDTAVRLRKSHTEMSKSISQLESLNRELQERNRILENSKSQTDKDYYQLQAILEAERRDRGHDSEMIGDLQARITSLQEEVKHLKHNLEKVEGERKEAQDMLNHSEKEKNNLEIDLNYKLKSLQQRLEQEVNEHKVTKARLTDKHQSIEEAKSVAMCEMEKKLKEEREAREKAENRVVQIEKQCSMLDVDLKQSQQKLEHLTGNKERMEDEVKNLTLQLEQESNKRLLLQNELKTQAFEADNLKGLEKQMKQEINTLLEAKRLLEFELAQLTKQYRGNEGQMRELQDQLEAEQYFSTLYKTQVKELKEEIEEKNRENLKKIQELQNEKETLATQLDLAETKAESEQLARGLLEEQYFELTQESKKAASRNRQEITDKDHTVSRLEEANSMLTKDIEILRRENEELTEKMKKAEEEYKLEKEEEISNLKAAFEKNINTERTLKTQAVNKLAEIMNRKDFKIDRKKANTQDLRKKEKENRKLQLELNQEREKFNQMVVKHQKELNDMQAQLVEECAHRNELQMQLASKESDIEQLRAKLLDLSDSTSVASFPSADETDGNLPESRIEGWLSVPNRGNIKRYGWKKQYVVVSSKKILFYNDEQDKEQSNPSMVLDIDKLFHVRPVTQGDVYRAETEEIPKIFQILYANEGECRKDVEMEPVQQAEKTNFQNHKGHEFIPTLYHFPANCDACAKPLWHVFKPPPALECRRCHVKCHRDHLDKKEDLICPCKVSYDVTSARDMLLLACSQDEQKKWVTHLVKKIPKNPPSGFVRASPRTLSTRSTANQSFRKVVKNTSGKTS
5'-AMP-activated protein kinase catalytic subunit alpha-1, sequence (Q13131 whole entry): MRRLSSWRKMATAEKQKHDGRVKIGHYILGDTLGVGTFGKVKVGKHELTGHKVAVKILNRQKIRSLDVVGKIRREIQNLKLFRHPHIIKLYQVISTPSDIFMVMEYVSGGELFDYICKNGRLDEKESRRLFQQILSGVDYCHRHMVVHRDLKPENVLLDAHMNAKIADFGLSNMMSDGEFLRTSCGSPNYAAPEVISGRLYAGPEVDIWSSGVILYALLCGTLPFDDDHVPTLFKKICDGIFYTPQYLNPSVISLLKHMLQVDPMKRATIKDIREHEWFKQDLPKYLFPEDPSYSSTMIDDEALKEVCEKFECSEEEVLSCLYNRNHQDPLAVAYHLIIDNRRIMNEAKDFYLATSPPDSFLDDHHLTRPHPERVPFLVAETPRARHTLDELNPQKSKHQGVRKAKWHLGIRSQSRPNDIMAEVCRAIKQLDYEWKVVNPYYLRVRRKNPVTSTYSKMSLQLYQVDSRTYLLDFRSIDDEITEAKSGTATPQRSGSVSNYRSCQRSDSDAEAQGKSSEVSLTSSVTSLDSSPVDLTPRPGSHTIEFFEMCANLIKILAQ
Serine/threonine-protein kinase TAO1, sequence (Q7L7X3 whole entry): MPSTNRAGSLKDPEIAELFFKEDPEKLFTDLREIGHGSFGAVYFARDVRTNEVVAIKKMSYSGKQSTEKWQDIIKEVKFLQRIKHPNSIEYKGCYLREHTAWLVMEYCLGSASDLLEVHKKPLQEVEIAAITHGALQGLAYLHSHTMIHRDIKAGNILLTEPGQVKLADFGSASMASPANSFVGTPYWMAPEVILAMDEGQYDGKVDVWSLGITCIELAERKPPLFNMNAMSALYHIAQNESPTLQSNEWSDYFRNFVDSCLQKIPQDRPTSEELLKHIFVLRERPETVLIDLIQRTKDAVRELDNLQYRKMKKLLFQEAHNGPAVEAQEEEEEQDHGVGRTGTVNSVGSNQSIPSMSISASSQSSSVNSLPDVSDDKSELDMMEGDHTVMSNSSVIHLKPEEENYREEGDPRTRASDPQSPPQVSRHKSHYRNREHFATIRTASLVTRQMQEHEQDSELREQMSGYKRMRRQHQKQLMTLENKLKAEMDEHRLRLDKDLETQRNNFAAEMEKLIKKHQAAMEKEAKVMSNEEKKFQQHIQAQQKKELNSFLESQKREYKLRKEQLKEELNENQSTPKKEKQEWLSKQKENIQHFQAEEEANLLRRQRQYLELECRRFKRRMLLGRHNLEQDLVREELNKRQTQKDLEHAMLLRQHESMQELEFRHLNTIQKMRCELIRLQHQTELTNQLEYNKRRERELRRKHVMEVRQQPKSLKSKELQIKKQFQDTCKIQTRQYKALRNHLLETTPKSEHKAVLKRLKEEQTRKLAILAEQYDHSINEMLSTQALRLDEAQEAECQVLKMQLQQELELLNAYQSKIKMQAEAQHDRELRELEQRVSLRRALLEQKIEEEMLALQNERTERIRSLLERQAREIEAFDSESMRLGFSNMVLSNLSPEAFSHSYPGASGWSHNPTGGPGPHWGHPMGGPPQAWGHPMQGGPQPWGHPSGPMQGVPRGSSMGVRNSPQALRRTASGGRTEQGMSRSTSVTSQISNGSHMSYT
Serine/threonine-protein kinase Nek2, sequence (P51955 whole entry): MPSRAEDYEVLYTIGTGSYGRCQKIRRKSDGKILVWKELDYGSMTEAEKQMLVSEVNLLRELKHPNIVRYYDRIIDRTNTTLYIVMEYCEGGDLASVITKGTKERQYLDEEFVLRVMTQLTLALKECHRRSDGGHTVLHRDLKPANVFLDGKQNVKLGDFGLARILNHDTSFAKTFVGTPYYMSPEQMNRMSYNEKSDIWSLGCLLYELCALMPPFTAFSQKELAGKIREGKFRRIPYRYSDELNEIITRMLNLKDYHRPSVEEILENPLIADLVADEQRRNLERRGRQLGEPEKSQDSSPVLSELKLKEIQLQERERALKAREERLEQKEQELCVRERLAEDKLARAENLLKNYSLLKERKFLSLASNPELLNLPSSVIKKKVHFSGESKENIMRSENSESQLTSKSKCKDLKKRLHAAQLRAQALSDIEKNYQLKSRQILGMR

Structure (SMILES)	Ki [1]	Ki [2]	Ki [3]	Ki [4]	Ki [5]	Ki [6]	Ki [7]	EC50 (Insulin-degrading enzyme)	AC50 [8]	AC50 (HeLa)	EC50 [9]	IC50 [10]
O=C(Cc1cccs1)Nc1nc2ccccc2s1	> 2.51 µM (inactive)	0.794 µM (active)	2 µM (active)	1 µM (active)	3.16 µM (active)	6.31 µM (active)	1.58 µM (active)					
O=S(=O)(O)c1cccc2c(N=Nc3ccc(O)c4ncccc34)cccc12								8.8 µM (active)	7.57 µM (active)	206 µM (active)	> 114 µM (inactive)	
O=C(NNc1cc(N2CCCC2)nc(N2CCCC2)n1)c1ccc([N+](=O)[O-])cc1									13.7 µM (active)			> 67 µM (not active)

Source: ChEMBL document CHEMBL1201862, “PubChem BioAssay data set” (2004)
